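Results reflect a 48-hour exposure of cells in 96-well plates to compound at five concentrations. TGI marks complete inhibition of growth.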
Experiments:
Assay in all cases: NCI-60 cell line screen, 48 h
A498 renal = system: A498 renal
MDA-MB-231 breast = system: MDA-MB-231 breast
MOLT-4 leukemia = system: MOLT-4 leukemia
OVCAR-5 ovarian = system: OVCAR-5 ovarian
SK-MEL-5 melanoma = system: SK-MEL-5 melanoma
HS 578T breast = system: HS 578T breast
TK-10 renal = system: TK-10 renal
SK-MEL-28 melanoma = system: SK-MEL-28 melanoma
OVCAR-3 ovarian = system: OVCAR-3 ovarian
SN12C renal = system: SN12C renal
RPMI-8226 leukemia = system: RPMI-8226 leukemia
NCI/ADR-RES ovarian = system: NCI/ADR-RES ovarian
MCF7 breast = system: MCF7 breast
HT29 colon = system: HT29 colon
HOP-92 NSCLC = system: HOP-92 NSCLC
SW-620 colon = system: SW-620 colon
SR leukemia = system: SR leukemia
COLO 205 colon = system: COLO 205 colon
NCI-H460 lung = system: NCI-H460 lung
CCRF-CEM leukemia = system: CCRF-CEM leukemia

SMILES	TGI (A498 renal)	TGI (MDA-MB-231 breast)	TGI (MOLT-4 leukemia)	TGI (OVCAR-5 ovarian)	TGI (SK-MEL-5 melanoma)	TGI (HS 578T breast)	TGI (TK-10 renal)	TGI (SK-MEL-28 melanoma)	TGI (OVCAR-3 ovarian)	TGI (SN12C renal)	TGI (RPMI-8226 leukemia)	TGI (NCI/ADR-RES ovarian)	TGI (MCF7 breast)	TGI (HT29 colon)	TGI (HOP-92 NSCLC)	TGI (SW-620 colon)	TGI (SR leukemia)	TGI (COLO 205 colon)	TGI (NCI-H460 lung)	TGI (CCRF-CEM leukemia)
CN(C)CC(C)(C)CN1c2ccccc2Sc2ccccc21	26.4 µM	24.3 µM	20.8 µM	29.9 µM	29.4 µM	28.5 µM	26.9 µM	26.8 µM	24.3 µM	25.9 µM	35.8 µM	26.3 µM	30 µM	22.6 µM	24.1 µM	28.3 µM	23.4 µM	24.9 µM	26.3 µM	
c1cc(CSc2ncnc3nc[nH]c23)ccn1	> 100 µM	> 100 µM	> 100 µM	> 100 µM	> 100 µM	> 100 µM	> 100 µM	> 100 µM	> 100 µM	> 100 µM	> 100 µM	> 100 µM	> 100 µM	> 100 µM	> 100 µM	> 100 µM	> 100 µM	> 100 µM	> 100 µM	> 100 µM
C[C@@H]1CC[C@@]2(C)[C@H](C)/C(=C\COC(=O)/C=C/c3ccc(O)c(O)c3)CC[C@@]12C	25.8 µM	20.5 µM	8.9 µM	35 µM	17 µM	32.8 µM	11.5 µM	24.5 µM	21.6 µM	17.1 µM	10.2 µM	23.5 µM	15.2 µM	25.1 µM	29.7 µM	23.6 µM	6.93 µM	13.4 µM	13.5 µM	
S=C1NNC2(C(=S)N1)c1ccccc1-c1ccccc12	> 10 µM	> 10 µM	> 10 µM		> 10 µM	> 10 µM	> 10 µM			> 10 µM	> 10 µM	> 10 µM	> 10 µM	> 10 µM	> 10 µM	> 10 µM	> 10 µM	> 10 µM	> 10 µM	> 10 µM
O=C(/C=C/c1cccc(Br)c1)N1CCN(CCOC(c2ccccc2)c2ccccc2)CC1	> 100 µM	> 100 µM	30.8 µM	> 100 µM	30.7 µM	> 100 µM	> 100 µM	> 100 µM	> 100 µM	> 100 µM	36.2 µM	> 100 µM	> 100 µM	81.5 µM	99.1 µM	> 100 µM	38.4 µM	57.4 µM	> 100 µM	39.8 µM
CC(C)C(/C=C/c1ccc(Cl)cc1)=N\NC(=O)N/N=C(/C=C/c1ccc(Cl)cc1)C(C)C	33.9 µM	49.4 µM	> 100 µM	> 100 µM	> 100 µM	50.8 µM	51.3 µM	> 100 µM	35.8 µM	33.7 µM	> 100 µM	78.9 µM	> 100 µM	> 100 µM	56.9 µM	> 100 µM	80.7 µM	> 100 µM	54.8 µM	> 100 µM
